# Assay results: patent US7491711B2, “Methods of treatment using 3-desoxy vitamin D3 analogs” (Roche Palo Alto LLC, priority 2001, dated 2009)
# Marks after values point to notes of the source that are not given here.
# Key:
# [1] = system: rat ovariectomy model (post menopausal osteopenia); experiment: Bone mineral density in vivo (Dual Energy X-ray Absorptiometry), rat ovariectomy model; settings: OVX rats
# Description: (§1) Comparison of the efficacy of Compound 7 to that of 1,25-dihydroxy vitamin D3 (i.e., VD3), was made using the standard animal model for post menopausal osteopenia, the rat ovariectomy model. Three month old rats weighing 285gm were ovariectomized (OVX), and then treated for 8 weeks beginning 1 week post OVX. Drugs were administered once/day orally in miglyol (medium chain triglyceride) vehicle. Blood and urine samples were collected at the 3 wk and 6 wk timepoint, and bone mineral density (BMD) was determined in vivo at 6 wk using Dual Energy X-ray Absorptiometry (Hologic QDR-4500™ Bone Scanner). At 8 weeks, the animals were sacrificed, and the lumbar vertebrae and femur bones removed for ex vivo BMD determination (Lunar PixiMus™ Bone Scanner) and biomechanical testing for strength. Data for each compound are reported in the accompanying tables for the highest safe doses.
# (§2) The doses being compared all gave 3 wk serum calcium levels of 9.3 mg/dl, and 6 wk levels of 9.8±0.1 mg/dl. At these doses, the urinary calcium output per 24 hr sample was the same for the 0.4 nmol/kg dose of VD3 and the 0.5 nmol/kg dose of Compound 7. […] These doses represent those expected to give maximal efficacy achievable safely, as higher doses of each compound are known to be hypercalcemic. […] Failure Load, the amount of force needed to fracture the L5 vertebra, was determined in axial compression testing.
# [2] = Urinary calcium in the rat ovariectomy model (safety); assay type: in vivo; settings: OVX rats; for urinary calcium output per 24 hr sample, compared between the two substances: 0.4 nmol/kg dose of VD3 and 0.5 nmol/kg dose of Compound 7
# Description: as §1, §2
# [3] = system: rat ovariectomy model (post menopausal osteopenia); experiment: Urinary deoxypyridinolines (marker of bone resorption), rat ovariectomy model; assay type: in vivo; settings: OVX rats
# Description: as §1, §2
# [4] = Serum calcium in the rat ovariectomy model (safety); assay type: in vivo; settings: OVX rats
# Description: as §1, §2
# [5] = system: rat ovariectomy model (post menopausal osteopenia); experiment: L5 vertebral body biomechanics (axial compression testing), rat ovariectomy model; assay type: in vivo; settings: OVX rats
# Description: as §1, §2
# [6] = system: rat ovariectomy model (post menopausal osteopenia); experiment: L5 bone density ex vivo (BMD, BMC), rat ovariectomy model; assay type: in vivo; settings: OVX rats
# Description: as §1
# [7] = system: patients commencing long term treatment with prednisone or prednisolone; settings: 0.5 to 1.0 micrograms/day plus calcium 1000 mg/day, with or without intranasal calcitonin 400 IU/day; cited from earlier work
# [8] = system: women with postmenopausal osteoporosis; settings: cited from earlier work
# [9] = Week 6, 0.5 nmol/kg once/day orally
# [10] = Week 3, 0.5 nmol/kg once/day orally
# [11] = Week 8, 0.5 nmol/kg once/day orally
# [12] = Week 6, 0.012 nmol/kg once/day orally
# [13] = Week 6, 0.04 nmol/kg once/day orally
# [14] = Week 3, 0.012 nmol/kg once/day orally
# [15] = Week 3, 0.04 nmol/kg once/day orally
# [16] = Week 8, 0.012 nmol/kg once/day orally
structure (smiles),measurement,setting,value
C=C1/C(=C\C=C2/CCC[C@]3(C)[C@@H](C4(C/C=C/C(O)(C(F)(F)F)C(F)(F)F)CC4)CC[C@@H]23)CCC[C@@H]1O [Compound 27],"PERCENT BMD > OVX CONTROL in vivo, Distal Femur, Mean",[1]; [9],8.5 ** PERCENT
same,"PERCENT BMD > OVX CONTROL in vivo, L2-L4 Vertebrae, Mean",[1]; [9],10.3 ** PERCENT
same,"PERCENT BMD > OVX CONTROL in vivo, L5 vertebrae, Mean",[1]; [9],8.7 ** PERCENT
same,"PERCENT BMD > OVX CONTROL in vivo, Prox Femur, Mean",[1]; [9],5.7 ** PERCENT
same,"PERCENT BMD > OVX CONTROL in vivo, Whole Femur, Mean",[1]; [9],6.3 ** PERCENT
same,"BMD at all of the bone sites listed, compared with VD3",[1]; doses which give equivalent serum calcium levels,significantly higher
same,"urinary calcium output per 24 hr sample, compared between the two substances",[2],the same
same,"URINARY CALCIUM, Mean",[2]; [10],0.51 **+ MG/MMOL Creatineine/day
same,"URINARY CALCIUM, Mean",[2]; [9],0.72 **++ MG/MMOL Creatineine/day
same,"Urinary deoxy-pyridinolines (marker of bone resorption), compared with VD3",[3]; 6 weeks,significantly less
same,"URINARY D-PYD, Mean",[3]; [10],0.65 *+ nM/mM Creatinine
same,"URINARY D-PYD, Mean",[3]; [9],0.57 **+ nM/mM Creatinine
same,"SERUM CALCIUM, Mean",[4]; [10],9.3 ns mg/dl
same,"SERUM CALCIUM, Mean",[4]; [9],9.9 **+ mg/dl
same,vertebral bone strength,[5]; L5 vertebra,stronger vertebral bone
same,"L5 Vertebral Body BIOMECHANICS, Failure Load, Mean",[5]; [11],419 ** N
same,"Failure Load, force needed to fracture the L5 vertebra, compared with VD3","[5]; axial compression testing, highest safe doses",Significantly more force was needed
same,"L5 Bone Density Ex Vivo, BMC, Mean",[6]; [11],0.039 ** g
same,"L5 Bone Density Ex Vivo, BMD, Mean",[6]; [11],0.112 ** g/cm^2
"C=C1/C(=C\C=C2/CCC[C@]3(C)[C@@H]([C@H](C)CCCC(C)(C)O)CC[C@@H]23)C[C@@H](O)C[C@@H]1O [VitD, 1,25-dihydroxy vitamin D3]","PERCENT BMD > OVX CONTROL in vivo, Distal Femur, Mean",[1]; [12],2.8 ++ PERCENT
same,"PERCENT BMD > OVX CONTROL in vivo, L2-L4 Vertebrae, Mean",[1]; [12],3.3 ++ PERCENT
same,"PERCENT BMD > OVX CONTROL in vivo, L5 vertebrae, Mean",[1]; [12],2.7 ++ PERCENT
same,"PERCENT BMD > OVX CONTROL in vivo, Prox Femur, Mean",[1]; [12],3.5 ns PERCENT
same,"PERCENT BMD > OVX CONTROL in vivo, Whole Femur, Mean",[1]; [12],3.3 + PERCENT
same,"PERCENT BMD > OVX CONTROL in vivo, Distal Femur, Mean",[1]; [13],2.8 ++ PERCENT
same,"PERCENT BMD > OVX CONTROL in vivo, L2-L4 Vertebrae, Mean",[1]; [13],5.4 * PERCENT
same,"PERCENT BMD > OVX CONTROL in vivo, L5 vertebrae, Mean",[1]; [13],4.9 ++ PERCENT
same,"PERCENT BMD > OVX CONTROL in vivo, Prox Femur, Mean",[1]; [13],0.7 ++ PERCENT
same,"PERCENT BMD > OVX CONTROL in vivo, Whole Femur, Mean",[1]; [13],1.9 ++ PERCENT
same,"urinary calcium output per 24 hr sample, compared between the two substances",[2],the same
same,"URINARY CALCIUM, Mean",[2]; [14],0.31 ** MG/MMOL Creatineine/day
same,"URINARY CALCIUM, Mean",[2]; [15],0.51 **+ MG/MMOL Creatineine/day
same,"URINARY CALCIUM, Mean",[2]; [12],0.43 ** MG/MMOL Creatineine/day
same,"URINARY CALCIUM, Mean",[2]; [13],0.71 **++ MG/MMOL Creatineine/day
same,"URINARY D-PYD, Mean",[3]; [14],0.81 ++ nM/mM Creatinine
same,"URINARY D-PYD, Mean",[3]; [15],0.75 ++ nM/mM Creatinine
same,"URINARY D-PYD, Mean",[3]; [12],0.78 ++ nM/mM Creatinine
same,"URINARY D-PYD, Mean",[3]; [13],0.76 ++ nM/mM Creatinine
same,"SERUM CALCIUM, Mean",[4]; [14],9.3 nd mg/dl
same,"SERUM CALCIUM, Mean",[4]; [15],9.3 ns mg/dl
same,"SERUM CALCIUM, Mean",[4]; [12],9.8 **+ mg/dl
same,"SERUM CALCIUM, Mean",[4]; [13],9.7 ** mg/dl
same,steroid-induced bone loss,[7],prevented steroid-induced bone loss
same,lower rate of new vertebral fractures compared with patients receiving elemental calcium 1000 mg/day,"[8]; mild to moderate disease, 0.25 microgram twice daily, after 3 years of treatment",3 fold
same,tolerability,"[8]; patients, overall",well tolerated
same,"L5 Vertebral Body BIOMECHANICS, Failure Load, Mean",[5]; [16],342 * N
same,"L5 Bone Density Ex Vivo, BMC, Mean",[6]; [16],0.035 ns g
same,"L5 Bone Density Ex Vivo, BMD, Mean",[6]; [16],0.103 ++ g/cm^2
